In US20260008815A1, “CYCLIC PEPTIDE OR SALT THEREOF, AND USES THEREOF” (FUJIFILM Corporation, priority 2023, published 2026):
Bridge positions count the residues as written; N and C are the ends. Ends that are not written are not given here. COCH2 = acetyl group that carries the bridge

What was measured:
[1] = system: BaF3 cells stably expressing FGFR (bovine); test: BaF3 cell proliferation-promoting effect; assay type: cell-based; conditions: number of viable cells at the addition concentration (0.001 to 10 nmol/L) giving the largest number; 2 nights; negative control about 100 cells/well
Method: (§1) The FGFR phosphorylation ability of the cyclic peptide complex was evaluated using the BaF3 cell proliferation-promoting effect in which FGFR was stably expressed.
(§2) BaF3 cells stably expressing FGFR were established by introducing a vector (human: Sino Biologicals, HG10824-UT, bovine: sequence of Accession No. F1MNW2 was introduced into pCDNA3.1/Hygro(+) Mammalian Expression Vector (Thermo, V87020), porcine: sequence of Accession No. A0A4X1SNN3 was introduced into pCDNA3.1/Hygro(+) Mammalian Expression Vector (Thermo, V87020), and avian: sequence of Accession No. A0A8V0XB17 was introduced into pCDNA3.1/Hygro(+) Mammalian Expression Vector (Thermo, V87020)) into which FGFR gene had been incorporated, into BaF3 cells using NucleoFector (Lonza) and performing drug selection of cells into which the FGFR gene had been introduced using hygromycin.
(§3) The evaluation of the proliferation-promoting effect of BaF3 cells in which FGFR is stably expressed was performed by the following method. First, RPMI-1640 with L-Glutamine and Phenol Red (FUJIFILM Wako Pure Chemical Corporation, 189-02025) and Fetal Bovine Serum (Thermo, 10270-106) were mixed at a volume ratio of 9:1, and then heparin (STEM CELL, 07980) was added thereto such that the final concentration thereof was 8 μg/mL, thereby preparing a culture medium for evaluation (hereinafter, described as RPMI (10% FBS) medium). Next, the BaF3 cells in which FGFR had been stably expressed were washed twice with RPMI (10% FBS) culture medium, suspended in RPMI (10% FBS) culture medium in which the cyclic peptide complex had been dissolved to a final concentration of 0.001 to 10 nmol/L, and seeded in a 384-well plate. In this case, a condition in which the cyclic peptide complex was not added as a negative control was prepared. After culturing at 37° C. (5% CO2) for 2 nights, Hoechst 33342, Trihydrochloride, Trihydrate-10 mg/mL Solution in Water (Thermo, H3570), -Cellstain (registered trademark)-Calcein-AM solution (1 mg/mL DMSO solution) (DOJINDO, C396), and -Cellstain (registered trademark)-PI solution (DOJINDO, P378) were each added to RPMI (10% FBS) culture medium in a volume amount of 1/1,000 at the final concentration, and live/dead staining of the cells were performed by allowing to stand at room temperature for 1 hour, and imaging was performed using a confocal microscope (Yokogawa Electric Corporation, CQ1). The number of viable cells was calculated from the imaging data, and the cell proliferation-promoting effect was evaluated according to the following evaluation criteria. The number of viable cells in the negative control was about 100 cells/well. The evaluation result preferably satisfies the evaluation criteria A, B, or C.
(§4) At an addition concentration of the cyclic peptide complex having the largest number of viable cells, evaluation criteria is as follows.

[2] = system: BaF3 cells stably expressing FGFR (porcine); test: BaF3 cell proliferation-promoting effect; assay type: cell-based; conditions: number of viable cells at the addition concentration (0.001 to 10 nmol/L) giving the largest number; 2 nights; negative control about 100 cells/well
Method: as §1, §2, §3, §4

[3] = system: BaF3 cells stably expressing FGFR (human); test: BaF3 cell proliferation-promoting effect; assay type: cell-based; conditions: number of viable cells at the addition concentration (0.001 to 10 nmol/L) giving the largest number; 2 nights; negative control about 100 cells/well
Method: as §1, §2, §3, §4

[4] = system: BaF3 cells stably expressing FGFR (avian); test: BaF3 cell proliferation-promoting effect; assay type: cell-based; conditions: number of viable cells at the addition concentration (0.001 to 10 nmol/L) giving the largest number; 2 nights; negative control about 100 cells/well
Method: as §1, §2, §3, §4

[5] = Molecular stability after alkali treatment, LC; assay type: physicochemical; conditions: 0.5 mol/L sodium hydroxide aqueous solution added, room temperature, 3 hours
Method: In addition, the stability of the cyclic peptide (SEQ ID NO: 450) containing a cysteine residue in the cyclized portion and the cyclic peptide (SEQ ID NO: 442) containing a homocysteine residue in the cyclized portion was compared under the following alkali treatment, which is a more severe condition.
The alkali treatment was performed by the following method. 25 μL of a 0.2 mg/ml cyclic peptide aqueous solution was prepared, 58.8 μL of a 0.5 mol/L sodium hydroxide aqueous solution was added to the aqueous solution, and the mixture was incubated at room temperature for 3 hours to obtain an aqueous solution of the cyclic peptide alkali-treated. The total area of all the peaks in LC/MS of the cyclic peptide before the alkali treatment was set to 100%, and the proportion of the total area of all the peaks in LC/MS of the aqueous solution of the cyclic peptide alkali-treated was determined to calculate the residual rate of the cyclic peptide.
The LC conditions used for the evaluation of molecular stability are the same as those in the measurement of the above-described cyclic peptide treated with a reducing agent.

## 455 (KCPQNFINPVQWRYFQHYKNGSGSGSSGSSSGSSKCPQNFINPVQWRYFQHYKN; also: cyclic peptide) [compound 455]
[1]
  Evaluation result of cell proliferative properties Bovine: B (The number of viable cells is 400 cells/well or more and less than 1,000 cells/well.)
[2]
  Evaluation result of cell proliferative properties Porcine: A (The number of viable cells is 1,000 cells/well or more.)
[3]
  Evaluation result of cell proliferative properties Human: A (The number of viable cells is 1,000 cells/well or more.)
[4]
  Evaluation result of cell proliferative properties Avian: C (The number of viable cells is 200 cells/well or more and less than 400 cells/well.)

## 456 (QCPQNFINPVQWRYFQHYKNKQCPQNFINPVQWRYFQHYKNK; also: cyclic peptide) [compound 456]
[1]
  Evaluation result of cell proliferative properties Bovine: A (The number of viable cells is 1,000 cells/well or more.)
[2]
  Evaluation result of cell proliferative properties Porcine: A (The number of viable cells is 1,000 cells/well or more.)
[3]
  Evaluation result of cell proliferative properties Human: A (The number of viable cells is 1,000 cells/well or more.)
[4]
  Evaluation result of cell proliferative properties Avian: A (The number of viable cells is 1,000 cells/well or more.)

## 457 (QCPQNFINPVQWRYFQHYKNKQCPQNFINPVQWRYFQHYKNK; also: cyclic peptide) [compound 457]
[1]
  Evaluation result of cell proliferative properties Bovine: A (The number of viable cells is 1,000 cells/well or more.)
[2]
  Evaluation result of cell proliferative properties Porcine: A (The number of viable cells is 1,000 cells/well or more.)
[3]
  Evaluation result of cell proliferative properties Human: A (The number of viable cells is 1,000 cells/well or more.)
[4]
  Evaluation result of cell proliferative properties Avian: A (The number of viable cells is 1,000 cells/well or more.)

## 458 (QCPQNFINPVQWRYFQHYKNKQCPQNFINPVQWRYFQHYKNK; also: cyclic peptide) [compound 458]
[1]
  Evaluation result of cell proliferative properties Bovine: A (The number of viable cells is 1,000 cells/well or more.)
[2]
  Evaluation result of cell proliferative properties Porcine: A (The number of viable cells is 1,000 cells/well or more.)
[3]
  Evaluation result of cell proliferative properties Human: A (The number of viable cells is 1,000 cells/well or more.)
[4]
  Evaluation result of cell proliferative properties Avian: A (The number of viable cells is 1,000 cells/well or more.)

## 459 (QCPQNFINPVQWRYFQHYKNQCPQNFINPVQWRYFQHYKNK; also: cyclic peptide) [compound 459]
[1]
  Evaluation result of cell proliferative properties Bovine: B (The number of viable cells is 400 cells/well or more and less than 1,000 cells/well.)
[2]
  Evaluation result of cell proliferative properties Porcine: A (The number of viable cells is 1,000 cells/well or more.)
[3]
  Evaluation result of cell proliferative properties Human: A (The number of viable cells is 1,000 cells/well or more.)
[4]
  Evaluation result of cell proliferative properties Avian: B (The number of viable cells is 400 cells/well or more and less than 1,000 cells/well.)

## 460 (YCEENYLDPEQYQYFIYFKYKYCEENYLDPEQYQYFIYFKYK; also: cyclic peptide) [compound 460]
[1]
  Evaluation result of cell proliferative properties Bovine: A (The number of viable cells is 1,000 cells/well or more.)
[2]
  Evaluation result of cell proliferative properties Porcine: A (The number of viable cells is 1,000 cells/well or more.)
[3]
  Evaluation result of cell proliferative properties Human: A (The number of viable cells is 1,000 cells/well or more.)
[4]
  Evaluation result of cell proliferative properties Avian: A (The number of viable cells is 1,000 cells/well or more.)

## Y-(C)-EENYLDPEQYQYFIYF-(K(acetyl))-YKKK (YCEENYLDPEQYQYFIYFK(COCH2)YKKK; thioether 2-19) [SEQ ID NO: 450]
[5]
  residual rate of the cyclic peptide: 36%

## Y-(Hcy)-EENYLDPEQYQYFIYF-(K(acetyl))-YKKK (YXEENYLDPEQYQYFIYFKYKKK; homocysteine, acetyl-lysine; Description of Artificial Sequence: Cyclic peptide) [SEQ ID NO: 442]
[5]
  residual rate of the cyclic peptide: 61%
